# Reference: patent US20080027145A1, “Therapeutic Molecules and Methods for Generating and/or Selecting Same” (priority 2004, published 2008)
# Entries after “also recorded” stand apart in the source; their conditions may differ. Read-outs that look alike come from different tables or passages of the source. Ends that are not written are not given here.
# How the values were obtained:
# [1] = system: mouse embryonic fibroblasts (MEFs); experiment: Killing of MEFs after retroviral expression, viability 24 hours after infection; type: cell-based; details: retroviral expression, 24 hours after infection
# Method: FIG. 7 is a graphical representation showing that BH3-only proteins that bind selective targets have weak killing activity. (A) The affinities of BH3-only peptides for pro-survival proteins (tabulated in FIG. 3A) were inversely plotted to facilitate comparison of the patterns of BH3 binding. […] Immortalized 3T9 MEFs were infected with retroviruses expressing only GFP (control), or one of the BH3-only proteins and GFP. The viability of the infected (GFP^+ve) cells was determined by PI exclusion 24 hours after infection. The histograms represent means±1SD of at least 3 experiments. […] The filter was probed with a rat monoclonal anti-FLAG antibody. *Degradation product of Mcl-1. […] Viability of MEFs infected with retroviruses encoding the indicated proteins (GFP^+ve) was analyzed 24 hours after infection. The histograms represent means±1SD of at least 3 experiments. (E) Long-term survival of MEFs infected with BH3 expressing retroviruses. One hundred retrovirally-infected cells were plated and the absolute number of GFP^+ve colonies formed after 6 days scored. […] The data represent the average number of GFP^+ve colonies formed±1SD from at least 3 experiments. To assess the biological relevance of the selective binding, retroviral delivery was used to compare the ability of different BH3-only proteins to kill wild-type mouse embryonic fibroblasts (MEFs). To monitor expression of the introduced gene, a vector (pMIG) in which its expression is coupled via an internal ribosomal entry site (IRES) to that of green fluorescent protein (GFP) was used (Van Parijs et al., Immunity 11:281-288, 1999). The cells were efficiently infected (>90%) and the introduced BH3-only proteins were comparably expressed. Viability of the infected (GFP^+ve) cells was scored 24 hours after infection (FIGS. 7A, 7B) and in long-term colony assays (FIG. 7E). […] Thus, the neutralization of Mcl-1 by Noxa should be complemented by co-expression of a BadBH3 to neutralize Bcl-2 and Bcl-xL in MEFs (FIG. 8A).
# [2] = system: mouse embryonic fibroblasts (MEFs); experiment: Long-term colony assay of retrovirally infected MEFs; type: cell-based; details: colonies after 6 days
# Method: FIG. 7 is a graphical representation showing that BH3-only proteins that bind selective targets have weak killing activity. (A) The affinities of BH3-only peptides for pro-survival proteins (tabulated in FIG. 3A) were inversely plotted to facilitate comparison of the patterns of BH3 binding. […] Immortalized 3T9 MEFs were infected with retroviruses expressing only GFP (control), or one of the BH3-only proteins and GFP. The viability of the infected (GFP^+ve) cells was determined by PI exclusion 24 hours after infection. The histograms represent means±1SD of at least 3 experiments. […] The filter was probed with a rat monoclonal anti-FLAG antibody. *Degradation product of Mcl-1. […] Viability of MEFs infected with retroviruses encoding the indicated proteins (GFP^+ve) was analyzed 24 hours after infection. The histograms represent means±1SD of at least 3 experiments. (E) Long-term survival of MEFs infected with BH3 expressing retroviruses. One hundred retrovirally-infected cells were plated and the absolute number of GFP^+ve colonies formed after 6 days scored. […] The data represent the average number of GFP^+ve colonies formed±1SD from at least 3 experiments. […] Viability of the infected (GFP^+ve) cells was scored 24 hours after infection (FIGS. 7A, 7B) and in long-term colony assays (FIG. 7E).
# Bcl-xL = biological target: T1, Bcl-xL (Homo sapiens, UniProt Q07817); experiment: Solution competition assay (competition with immobilized wtBimBH3, biosensor); type: binding; details: for fold tighter than wild-type peptide: IC50 ratio to wild-type Noxa BH3; for increase in binding to Bcl-xL: versus wt NoxaBH3
# T1 construct: Human Bcl-xL (Acc. no. NP_612815; residues 1-209); GST (N, cleaved yes); made in house
# Method: (§1) The relative affinities of BH3 peptides for pro-survival Bcl-2 proteins were assessed by comparing their abilities to compete with immobilized ^wtBimBH3 peptide for binding to Bcl-2-like proteins (Wilson-Annan et al., Supra). A fixed sub-saturating amount (10 nM) of a pro-survival Bcl-2 protein was incubated with varying amounts of competitor BH3 peptide in HBS for >2 hr on ice. The mixtures were then injected over a sensor chip containing a channel bearing mouse ^wtBimBH3 and a control channel with mouse ^4EBimBH3 immobilized. The baseline response (control channel) was subtracted to obtain the absolute binding response. Taking the response for the pro-survival protein alone as the maximal response (100%), the relative residual binding (%) in the presence of increasing amounts of competitor peptides at a given injection time point (430 s) was then calculated. […] Theoretically, IC50=[A]/2+KD, where [A] is the analyte concentration.
# (§2) Some of recombinant proteins (Bcl-2, Bcl-xL, A1) studied contain cysteine residues but the behavior of Bcl-2 or Bcl-xL was not affected by dithiothreitol (DTT).
# (§3) To assess if other BH3 peptides bind pro-survival proteins similarly, we directly compared their binding affinities in solution using a competitive binding assay. In such assays, the quality and absolute quantity of target proteins are less critical than in direct binding, and solution binding precludes the steric hindrance encountered with some immobilized peptides. FIG. 1C illustrates the approach: pre-incubation of Bcl-xL in solution with increasing amounts of BikBH3 reduced its binding to ^wtBimBH3 (FIG. 1D). From the attenuation in binding, the IC50 (competitor peptide concentration that halves binding) of BikBH3 can be calculated (FIG. 1E). As the IC50 values reflect relative binding affinities (see Experimental Procedures), we used this assay to compare the binding affinities of eight BH3 peptides (Table 3) to the five pro-survival proteins. […] Their binding properties fell into several classes (FIG. 2B and FIG. 4). […] Contrary to the prevailing view, the pro-survival proteins also had unique patterns for BH3 binding: Bcl-xL behaved like Bcl-w, with Bcl-2 more distinct, whereas Mcl-1 and A1 formed a separate group (FIG. 2B).
# Bcl-w = biological target: T2, Bcl-w (Homo sapiens, UniProt Q92843, A128E/C29S); experiment: as above; type: binding
# T2 construct: human Bcl-w (Acc. no. NP_004041; residues 1-164; C29S A128E); made in house
# T2 sequence (Q92843 1-164 C29S/A128E): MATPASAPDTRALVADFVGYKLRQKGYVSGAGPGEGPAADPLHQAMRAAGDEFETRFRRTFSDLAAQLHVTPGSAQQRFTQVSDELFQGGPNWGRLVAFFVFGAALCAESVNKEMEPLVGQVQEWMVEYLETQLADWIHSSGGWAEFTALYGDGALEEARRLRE
# Method: as §1, §2, §3
# Bcl-2 = biological target: T3, Bcl-2 (Homo sapiens, UniProt P10415); experiment: as above; type: binding; details: for binding to Bcl-2: Noxa mutant peptides
# T3 construct: Human Bcl-2 (Acc. no. NP_000624; residues 1-217); made in house
# Method: as §1, §2, §3
# [3] = system: pro-survival proteins (Bcl-2, Bcl-xL, Bcl-w, Mcl-1, A1); experiment: Solution competition assay, statements spanning several pro-survival proteins; type: binding, human and mouse; details: for binding preference among pro-survival proteins: Bcl-2, Bcl-xL, Bcl-w, Mcl-1, A1
# Method: as §1, §2, §3
# Mcl-1 ΔN151 ΔC23 = biological target: T4, Mcl-1 ΔN151 ΔC23 (Mus musculus, UniProt P97287); experiment: Direct binding to immobilized BH3 peptide, Biacore biosensor; details: BadBH3 or NoxaBH3 immobilized chip
# T4 construct: mouse Mcl-1 (Acc. no. NP_031588; residues 152-308); GST (N, cleaved yes); made in house
# Method: (§4) Recombinant human Bcl-xL ΔC24, mouse Mcl-1 ΔN151 ΔC23 and mouse A1 ΔC20 were expressed as GST fusion proteins and cleaved off Glutathione Sepharose columns as described (Day et al., Cell Death Differ 6:1125-1132, 1999; Hinds et al., EMBO J 22:1497-1507, 2003).
# (§5) Affinity measurements were performed at room temperature on a Biacore 3000 biosensor (Biacore) with HBS (10 mM HEPES pH 7.2, 150 mM NaCl, 3.4 mM EDTA, 0.005% Tween 20) as the running buffer. Mouse 26-mer ^wtBimBH3, ^4EBimBH3 mutant, BadBH3, NoxaBH3 or control irrelevant peptides were immobilized onto CM5 sensor chips using amine-coupling chemistry (Wilson-Annan et al., Supra). To assess the binding affinities of pro-survival Bcl-2-like proteins for BimBH3 directly, the proteins were directly injected into the sensor chip at 20 μl/min. Residual bound proteins were desorbed with 50 mM NaOH or 6 M GuHCl (pH 7.2), followed by two washes with running buffer. Binding kinetics were derived from sensorgrams, following subtraction of baseline responses, using BIA evaluation software (version 3, Biacore) (Wilson-Annan et al., Supra).
# (§6) The binding constants of the pro-survival molecules for ^wtBimBH3, immobilized on sensor chip, were determined using biosensor experiments as described in Hinds et al., Supra; Wilson-Annan et al., Supra.
# A1 ΔC20 = biological target: T5, A1 ΔC20 (Mus musculus, UniProt Q07440); experiment: as above; details: BadBH3 or NoxaBH3 immobilized chip
# T5 construct: mouse A1 (Acc. no. NP_033872; residues 1-152); GST (N, cleaved yes); made in house
# T5 sequence (Q07440 1-152): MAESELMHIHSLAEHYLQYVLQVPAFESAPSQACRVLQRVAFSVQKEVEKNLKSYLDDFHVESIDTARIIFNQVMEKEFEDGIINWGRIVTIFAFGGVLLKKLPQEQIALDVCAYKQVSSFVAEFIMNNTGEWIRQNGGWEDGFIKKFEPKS
# Method: as §4, §5, §6
# Mcl-1 = biological target: T6, Mcl-1 (Mus musculus, UniProt P97287); experiment: Solution competition assay (competition with immobilized wtBimBH3, biosensor); type: binding; details: versus wt NoxaBH3
# T6 construct: mouse Mcl-1 (Acc. no. NP_031588; residues 152-308); GST (N, cleaved yes); made in house
# Method: as §1, §2, §3
# [4] = competitor peptide vs immobilized wtBimBH3, read-out: IC50 for Bcl-xL
# T3 sequence (P10415 1-217): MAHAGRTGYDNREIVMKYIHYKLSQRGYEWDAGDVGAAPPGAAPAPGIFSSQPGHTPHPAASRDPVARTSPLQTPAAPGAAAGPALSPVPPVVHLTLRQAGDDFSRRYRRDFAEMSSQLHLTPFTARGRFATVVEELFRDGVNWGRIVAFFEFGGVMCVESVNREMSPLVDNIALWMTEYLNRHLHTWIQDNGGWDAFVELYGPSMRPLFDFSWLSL
# T1 sequence (Q07817 1-209): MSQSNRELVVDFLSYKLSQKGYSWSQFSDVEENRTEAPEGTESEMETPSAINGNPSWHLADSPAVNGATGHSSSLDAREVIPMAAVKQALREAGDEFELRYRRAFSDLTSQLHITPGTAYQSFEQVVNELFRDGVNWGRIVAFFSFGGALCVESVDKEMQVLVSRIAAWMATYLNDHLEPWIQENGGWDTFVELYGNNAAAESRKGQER
# T4 sequence (P97287 152-308): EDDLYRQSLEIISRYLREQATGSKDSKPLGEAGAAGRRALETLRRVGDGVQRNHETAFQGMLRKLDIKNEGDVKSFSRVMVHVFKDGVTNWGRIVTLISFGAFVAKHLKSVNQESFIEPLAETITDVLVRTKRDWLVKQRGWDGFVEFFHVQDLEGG
# T6 sequence (P97287 152-308): as above
substance,measurement,setting,value
"Bims: Bim isoform, the most potent, expressed from retrovirus in MEFs",killing of MEFs,[1],soon died
same,"long-term survival, GFP+ve colonies",[2],failed to generate colonies; also recorded: No colonies
PAELEVECATQLRRFGDKLNFRQKLL [Noxa (18-43)],IC50,"Bcl-xL; Bcl-xL, b59-60 do not name the target, values match Table 4, read-out: IC50",> 100 µM
same,IC50,Bcl-xL; [4],> 100 µM
same,IC50,"Bcl-w; Bcl-w, one of 'the others', read-out: IC50",> 100 µM
same,IC50,"Bcl-w; competitor peptide vs immobilized wtBimBH3, read-out: IC50 for Bcl-w",> 100 µM
same,IC50,"Bcl-2; Bcl-2, one of 'the others'",> 100 µM
same,binding preference among pro-survival proteins,[3]; listed as Noxa BH3,selectively binds Mcl-1 and A1
same,binding preference among pro-survival proteins,[3]; listed as NoxaBH3,highly selective for Mcl-1 and A1
same,IC50,[3]; Mcl-1 and A1,nM range
same,binding of Mcl-1 to immobilized peptide,Mcl-1 ΔN151 ΔC23,bound
same,binding of A1 to immobilized peptide,A1 ΔC20,bound
H-PAELEVECATQLRRIGDELNFRQKLL-OH [Noxa (18-43) mt3],IC50,Bcl-xL; [4],0.11 µM
same,Mcl-1 binding,Mcl-1,slightly improved
same,binding to Bcl-2,Bcl-2,remained weak
"BidBH3: human Bid BH3 peptide residues 81-104, DIIRNIARHLAQVGDSMDRSIPPG",binding preference among pro-survival proteins,[3],"preferred Bcl-xL, Bcl-w and A1 over Bcl-2 or Mcl-1"
"BmfBH3: mouse Bmf BH3 peptide residues 128-151, HRAEVQIARKLQCIADQFHRLHTQ",binding preference among pro-survival proteins,[3],showed similar preferences
Hrk: BH3-only protein Hrk expressed from retrovirus in MEFs,killing of MEFs,[1],much less potent killers
"PumaBH3: human Puma BH3 peptide residues 130-155, EEQWAREIGAQLRRMADDLNAQYERR",binding preference among pro-survival proteins,[3],comparable affinities for all the pro-survival proteins
"BikBH3: human Bik BH3 peptide residues 51-75, MEGSDALALRLACIGDEMDVSLRAP",binding preference among pro-survival proteins,[3],"preferred Bcl-xL, Bcl-w and A1 over Bcl-2 or Mcl-1"
H-PAELEVECATQLRRFGDELNFRQKLL-OH [Noxa (18-43) mt1],fold tighter than wild-type peptide,Bcl-xL,at least 17 fold
same,increase in binding to Bcl-xL,Bcl-xL,more than 20 fold
same,binding to Bcl-2,Bcl-2,remained weak
H-PAELEVECATQLRRIGDKLNFRQKLL-OH [Noxa (18-43) mt2],fold tighter than wild-type peptide,Bcl-xL,at least 90 fold
same,increase in binding to Bcl-xL,Bcl-xL,more than 100 fold
same,binding to Bcl-2,Bcl-2,remained weak
